Data set [1] is described as follows: molar heat capacity at constant pressure. The conditions noted are these: 101.33 kPa, Liquid, Large sample (1 g) DSC.
For data set [2] the following is noted: for viscosity: 101.33 kPa, Liquid.

± gives the expanded uncertainty stated by the source.

Regarding `CCCCCC[n+]1cc(C)cc(C)c1.O=S(=O)([N-]S(=O)(=O)C(F)(F)F)C(F)(F)F`, the “molar heat capacity at constant pressure” value in data set [1] (298 K) is recorded as 620 ± 63 J/K/mol; in data set [1] (323 K), 665 ± 67 J/K/mol. The viscosity in data set [2] (283 K) is reported as 251 ± 20 mPa·s; in data set [2] (293 K), 136 ± 10 mPa·s; in data set [2] (298 K), 104 ± 6 mPa·s; in data set [2] (303 K), 81 ± 4 mPa·s; in data set [2] (313 K), 52 ± 3 mPa·s; in data set [2] (323 K), 35 ± 2 mPa·s. Also, the viscosity in data set [2] (333 K) was found to be 24 ± 1 mPa·s; in data set [2] (343 K), 18 ± 1 mPa·s. In data set [2] (Crystal), the Triple point temperature worked out at 283 ± 3 K. The Glass transition temperature in data set [2] is -76 ± 4 °C.

Take `CCCC[n+]1cccc(C)c1.F[B-](F)(F)F` [1-butyl-3-methylpyridinium tetrafluoroborate]: the “molar heat capacity at constant pressure” value in data set [1] (298 K) stood at 405 ± 41 J/K/mol; in data set [1] (323 K), 421 ± 43 J/K/mol. Also, the viscosity in data set [2] (283 K) amounted to 517 ± 53 mPa·s; in data set [2] (293 K), 246 ± 22 mPa·s; in data set [2] (298 K), 177 ± 13 mPa·s; in data set [2] (303 K) it was 132 ± 8 mPa·s; in data set [2] (313 K), 78 ± 4 mPa·s; in data set [2] (323 K) it was 48 ± 3 mPa·s. In addition, the results for the viscosity in data set [2] (333 K) and in data set [2] (343 K) were 33 ± 2 mPa·s and 23 ± 1 mPa·s, respectively. Further, the Glass transition temperature in data set [2] is -76 ± 4 °C.

Take `CCCCCCCCCCCCCC[N+](C)(CCOCCOCCOCCOCCOCCO)CCOCCOCCOCCOCCOCCO.COS(=O)(=O)[O-]`: the entries for the “molar heat capacity at constant pressure” value in data set [1] (298 K) and in data set [1] (323 K) were 1066 ± 110 J/K/mol and 1098 ± 110 J/K/mol, respectively. Besides, the viscosity in data set [2] (283 K) worked out at 10240 ± 4400 mPa·s; in data set [2] (298 K) it was 2790 ± 910 mPa·s; in data set [2] (303 K), 1910 ± 560 mPa·s; in data set [2] (313 K) it was 964 ± 230 mPa·s; in data set [2] (323 K), 511 ± 98 mPa·s; in data set [2] (333 K) it was 300 ± 44 mPa·s. The viscosity in data set [2] (343 K) is 187 ± 21 mPa·s.

`CCCCn1cc[n+](C)c1.COCCOCCOS(=O)(=O)[O-]` [1-butyl-3-methylimidazolium 2-(2-methoxyethoxy)ethyl sulfate]: the “molar heat capacity at constant pressure” value in data set [1] (298 K) came out at 643 ± 65 J/K/mol; in data set [1] (323 K) it was 652 ± 66 J/K/mol. In addition, the viscosity in data set [2] (283 K) came to 4070 ± 730 mPa·s; in data set [2] (293 K), 1676 ± 260 mPa·s; in data set [2] (298 K) it was 1033 ± 140 mPa·s; in data set [2] (303 K), 731 ± 82 mPa·s; in data set [2] (313 K) it was 392 ± 36 mPa·s; in data set [2] (323 K), 228 ± 17 mPa·s. Moreover, the viscosity in data set [2] (333 K) was 146 ± 9 mPa·s; in data set [2] (343 K), 98 ± 5 mPa·s. The Glass transition temperature in data set [2] is -62 ± 4 °C.

With `CCCCCCn1cc[n+](C)c1.F[B-](F)(F)F` [1-hexyl-3-methylimidazolium tetrafluoroborate], the “molar heat capacity at constant pressure” value in data set [1] (298 K) is reported as 416 ± 42 J/K/mol; in data set [1] (323 K) it was 433 ± 44 J/K/mol. Besides, the Glass transition temperature in data set [2] was -79 ± 4 °C.

By viscosity is commonly meant the internal friction of a fluid under shear.

These data come from the NIST ThermoML archive (doi:10.1016/j.jct.2005.03.013).
